The structures appear in SMILES notation.

Results on two molecules are retold here after paper PMC8669121 (Epigenetics Insights, 2021).

The target in this assay is T1, HDAC8 (histone deacetylase 8) (Homo sapiens, UniProt Q9BY41).
T1 sequence (Q9BY41 1-377): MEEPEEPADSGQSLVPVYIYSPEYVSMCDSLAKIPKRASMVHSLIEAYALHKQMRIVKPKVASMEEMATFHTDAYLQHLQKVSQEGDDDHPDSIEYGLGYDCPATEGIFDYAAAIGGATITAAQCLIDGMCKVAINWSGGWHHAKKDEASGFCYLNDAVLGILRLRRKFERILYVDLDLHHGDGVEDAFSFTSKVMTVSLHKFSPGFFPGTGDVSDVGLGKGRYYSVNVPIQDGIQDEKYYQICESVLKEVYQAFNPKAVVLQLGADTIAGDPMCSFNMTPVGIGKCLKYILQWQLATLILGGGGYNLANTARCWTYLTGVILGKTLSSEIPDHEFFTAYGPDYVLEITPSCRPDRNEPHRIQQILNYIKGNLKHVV
As to the kind of experiment: Fluor de Lys fluorogenic deacetylase inhibition assay with AcRHKK. The assay is classed as biochemical.

In turn, `CCCCCCCCCC(=O)O` [Decanoic acid] gave a Ki of 4.48 ± 0.221 mM.
As for `CCCCCC(=O)O` [Hexanoic acid], the affinity, expressed as Ki, was 2.35 ± 0.341 mM.

The Ki is the dissociation constant of the complex between target and ligand, obtained from inhibition or displacement. Low readings indicate a stronger hold on the target, high ones a looser hold on the target.
